Measured values published in patent US10570179B2, “Substituted urea depsipeptide analogs as activators of the CLPP endopeptidase” (priority 2016, dated 2020).
In brackets after ≈: the same amount, converted by molar mass. Numbered stars: 1 amine (or outer) side, 2 acyl side, 3 side chain; on linkers, the order of the positions; unused ones are H or OH. Bridge positions count the residues as written; N and C are the ends. Square brackets hold non-standard residues; d marks the D form. Peptide text beside a SMILES is read from it. * marks the point of attachment. Phe(3-Me) = Cc1cccc(C[C@H](N)C(=O)O)c1; Pro(4R-Me) = C[C@H]1CN[C@H](C(=O)O)C1; Hyp = O=C(O)[C@@H]1C[C@@H](O)CN1; NH(3-Cl-phenyl) = Clc1cccc(N*)c1; NH(4-Cl-phenyl) = Clc1ccc(N*)cc1; aThr = C[C@H](O)[C@H](N)C(=O)O; Pip = O=C(O)[C@@H]1CCCCN1; CO = O=C([*:1])[*:2]

Experiments:
[1] = tested on: S. aureus USA 300; assay: Minimal inhibitory concentration, microbroth dilution; type: cell-based; conditions: Staphylococcus aureus, USA300, read-out: Minimal Inhibitory Concentrations (μM) S. aureus USA 300, MIC
Method: (§1) Minimal inhibitory concentrations (“MICs”) were determined using the microbroth dilution method according to Clinical Laboratory Standards Institute (CLSI; National, C.F. C. L. S., Methods for Dilution Antimicrobial Susceptibility Tests for Bacteria Grow aerobically-Seventh Edition: Approved Standard M7-A7, CLSI, Wayne, Pa., USA, 2008) and were read by visual inspection. Two fold serial dilutions of test compound in 100 μL of the appropriate broth media were first prepared in 96-well round bottom microtiter plates (Nalgene Nunc International, Rochester, N.Y., USA). An equivalent volume (100 μL) of bacterial broth inocula containing approximately 10^5 bacterial cfu/mL was added to each well to give final concentrations of test compound starting at 200 μM. The plates were then incubated aerobically at 37° C. All strains were incubated overnight. After incubations, in all cases the MIC was recorded as the lowest concentration of drug that prevented bacterial growth. The bacterial strains for which MIC was determined as described in Table 4.

[2] = tested on: S. aureus ATCC 29213; assay: as above; type: cell-based; conditions: Staphylococcus aureus, ATCC29213, read-out: Minimal Inhibitory Concentrations (μM) S. aureus ATCC 29213, MIC
Method: as §1

[3] = tested on: E. faecails; assay: as above; type: cell-based; conditions: Enterococcus faecalis, read-out: Minimal Inhibitory Concentrations (μM) E. faecails, MIC
Method: as §1

[4] = tested on: MRSA NRS70; assay: as above; type: cell-based; conditions: Staphylococcus aureus, read-out: Minimal Inhibitory Concentrations (μM) MRSA NRS70, MIC
Method: as §1

[5] = tested on: S. aureus ΔClpP; assay: as above; type: cell-based, Staphylococcus aureus; conditions: MIC; ClpP inactivated
Method: as §1

[6] = molecular target: T1, S. aureus ClpP (Sa-ClpP) (Staphylococcus aureus, UniProt Q2G036); assay: Casein-BODIPY digestion assay (ClpP activation); type: biochemical
T1 construct: made in house; host or cells: E. coli BL21 (DE3)
T1 sequence (Q2G036 whole entry): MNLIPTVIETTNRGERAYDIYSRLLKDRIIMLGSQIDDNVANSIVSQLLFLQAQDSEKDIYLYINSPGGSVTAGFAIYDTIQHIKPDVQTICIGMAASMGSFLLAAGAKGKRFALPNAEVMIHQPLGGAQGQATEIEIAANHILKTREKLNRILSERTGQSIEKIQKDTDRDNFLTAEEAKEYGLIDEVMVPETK
Method: The compounds were assayed in a casein digestion assay in order to determine their effect on ClpP activation. Briefly, the assay was carried out using S. aureus ClpP (“Sa-ClpP”) overexpressed in E. coli BL21 (DE3) and purified in a two-step process. Purity of the protein was assessed through SDS PAGE analysis. EC50 evaluations were conducted in triplicate in a 20 μl assay format using a method adapted from Maurizi et al. (Methods Enzymol. (1994) 244:314-331). Each well contained 10 μM saClpP, 25 μg/ml BODIPY FL casein (Invitrogen Corporation, San Diego, Calif.), and test compound in concentrations ranging between 0-1000 μM in assay buffer (50 mM Tris pH 8, 200 mM KCl, and 1 mM TCEP). The reaction took place at 37° C. Fluorescence (excitation 485 nm; emission 528 nm) was measured in five minute intervals over a 45 min period using a BioTek HT fluorescence microplate reader (BioTek Instruments, Inc., Winooski, Vt.). Velocity of each reaction was calculated and data was fit to a dose response curve using GraphPad Prism® software (GraphPad Software, Inc., La Jolla, Calif.). EC50 is the effective concentration of compound which causes 50% activation of S. aureus ClpP in the foregoing BODIPY FL casein assay.
Alternatively, the assay was carried out using EnzCheck Protease Assay (Molecular Probes, Catalog # E6638). The assay was performed in black 384 well, flat bottom, low volume plates (Greiner Bio-One, Monroe, N.C., catalog #784076). 10 μL of Tris.HCl buffer, pH 8.0 with 0.01% Triton X-100 was pipetted into each well using a Well-Mate (Thermo Scientific, Waltham, Mass.). 0.4 μL test compounds or controls (2% DMSO v/v) were added to each well using a Biomek FX liquid handling robot (Beckman Coulter, Indianapolis, Ind.). After addition of test compounds and controls, 10 μL of master mix containing 2 μM Sa-ClpP and 2 μM substrate (Bodipy-FL labeled casein) in Tris.HCl buffer, pH 8.0 with 0.01% (v/v) Triton X-100, was pipetted into each well. All assays were performed in triplicate, under linear velocity conditions. Increase in fluorescent signal following activation of Sa-ClpP by test compounds and controls was measured over time period of 30 mins using filters with excitation at 485±15 nm and emission at 520±25 nm on a PHERAstar FS Multilabel reader (BMG, Cary, N.C.). Instrument gains and enzyme linear velocity conditions were determined and validated using ADEP4, a known Sa-ClpP activator. Data analysis was done by measuring rate of casein degradation over time (slopes). Computed degradation rates (slopes) were normalized to positive (ADEP4) or negative (DMSO) controls. Using nonlinear regression curve fitting EC50 values and % activation were determined using the equation “log [agonist] vs. Response-variable slope (four parameters)-symmetrical” in the program Prism 6 (GraphPad Software, La Jolla, Calif. USA, www.graphpad.com).

Structure (SMILES) | MIC [1] [µM] | MIC [2] [µM] | MIC [3] [µM] | MIC [4] [µM] | Minimal Inhibitory Concentrations (μM) S. aureus ΔClpP [5] [µM] | EC50 [6] [nM]
Cc1cccc(C[C@H](NC(=O)Nc2ccc(Cl)cc2)C(=O)N[C@@H]2C(=O)N3C[C@H](O)C[C@H]3C(=O)N3CCCC[C@H]3C(=O)N[C@@H](C)C(=O)N3C[C@H](C)C[C@H]3C(=O)O[C@H]2C)c1 [Compound 61, (S)-2-(3-(4-CHLOROPHENYL)UREIDO)-N-((2R,6S,8AS,14AS,16R,20S,21S,23AS)-16-HYDROXY-2,6,21-TRIMETHYL-5,8,14,19,23-PENTAOXOOCTADECAHYDRO-1H,5H,14H,19H-PYRIDO[2,1-I]DIPYRROLO[2,1-C:2′,1′-L][1]OXA[4,7,10,13]TETRAAZACYCLOHEXADECIN-20-YL)-3-(M-TOLYL)PROPANAMIDE] ({NH(4-Cl-phenyl)-CO}-[Phe(3-Me)][aThr][Hyp][Pip]A[Pro(4R-Me)]; ester 2-C) | 0.156 (≈ 0.128 µg/mL) | 0.156 (≈ 0.128 µg/mL) | 2.5 (≈ 2.06 µg/mL) | 0.156 (≈ 0.128 µg/mL) | >20 | 270 ± 100
Cc1cccc(C[C@H](NC(=O)Nc2cccc(Cl)c2)C(=O)N[C@@H]2C(=O)N3C[C@H](O)C[C@H]3C(=O)N3CCCC[C@H]3C(=O)N[C@@H](C)C(=O)N3C[C@H](C)C[C@H]3C(=O)O[C@H]2C)c1 [Compound 62, (S)-2-(3-(3-CHLOROPHENYL)UREIDO)-N-((2R,6S,8AS,14AS,16R,20S,21S,23AS)-16-HYDROXY-2,6,21-TRIMETHYL-5,8,14,19,23-PENTAOXOOCTADECAHYDRO-1H,5H,14H,19H-PYRIDO[2,1-I]DIPYRROLO[2,1-C:2′,1′-L][1]OXA[4,7,10,13]TETRAAZACYCLOHEXADECIN-20-YL)-3-(M-TOLYL)PROPANAMIDE] ({NH(3-Cl-phenyl)-CO}-[Phe(3-Me)][aThr][Hyp][Pip]A[Pro(4R-Me)]; ester 2-C) | 0.625 (≈ 0.514 µg/mL) | 1.25 (≈ 1.03 µg/mL) | 2.5 (≈ 2.06 µg/mL) | 0.625 (≈ 0.514 µg/mL) | >20 | 420 ± 100
Cc1cccc(C[C@H](NC(=O)Nc2ccc(Cl)cc2)C(=O)N[C@@H]2C(=O)N3CCC[C@H]3C(=O)N3CCCC[C@H]3C(=O)N[C@@H](C)C(=O)N3C[C@H](C)C[C@H]3C(=O)O[C@H]2C)c1 [Compound 63, (S)-2-(3-(4-CHLOROPHENYL)UREIDO)-3-(M-TOLYL)-N-((2R,6S,8AS,14AS,20S,21S,23AS)-2,6,21-TRIMETHYL-5,8,14,19,23-PENTAOXOOCTADECAHYDRO-1H,5H,14H,19H-PYRIDO[2,1-I]DIPYRROLO[2,1-C:2′,1′-L][1]OXA[4,7,10,13]TETRAAZACYCLOHEXADECIN-20-YL)PROPANAMIDE] ({NH(4-Cl-phenyl)-CO}-[Phe(3-Me)][aThr]P[Pip]A[Pro(4R-Me)]; ester 2-C) | 0.313 (≈ 0.252 µg/mL) | 0.625 (≈ 0.504 µg/mL) | 0.313 (≈ 0.252 µg/mL) | 0.313 (≈ 0.252 µg/mL) | >20 | 400 ± 200
